Here are results for 1 molecule from patent US8796305B2 (Bayer Pharma Aktiengesellschaft, priority 2012, dated 2014).

This test deals with T1, recombinant guanylate cyclase reporter cell line (Rattus norvegicus, UniProt P19686+P20595).
T1 construct: expressed in transfected cells
T1 sequence (P20595 1-619): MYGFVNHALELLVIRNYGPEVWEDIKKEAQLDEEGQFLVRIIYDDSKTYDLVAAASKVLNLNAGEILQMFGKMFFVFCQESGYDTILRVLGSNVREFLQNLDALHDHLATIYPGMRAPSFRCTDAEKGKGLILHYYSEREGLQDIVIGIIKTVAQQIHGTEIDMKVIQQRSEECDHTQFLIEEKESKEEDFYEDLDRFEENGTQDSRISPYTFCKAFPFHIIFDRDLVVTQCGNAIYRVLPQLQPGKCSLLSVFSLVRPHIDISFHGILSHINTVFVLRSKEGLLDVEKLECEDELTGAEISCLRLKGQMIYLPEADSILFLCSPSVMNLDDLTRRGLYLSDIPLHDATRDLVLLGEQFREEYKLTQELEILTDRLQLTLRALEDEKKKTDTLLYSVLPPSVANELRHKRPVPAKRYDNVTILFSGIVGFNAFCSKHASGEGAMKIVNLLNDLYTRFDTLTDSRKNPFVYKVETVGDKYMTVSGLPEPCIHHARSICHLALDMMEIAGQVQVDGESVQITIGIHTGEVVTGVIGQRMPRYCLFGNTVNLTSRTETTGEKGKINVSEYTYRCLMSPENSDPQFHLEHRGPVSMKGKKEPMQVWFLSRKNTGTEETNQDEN
T1 sequence (P19686 1-690): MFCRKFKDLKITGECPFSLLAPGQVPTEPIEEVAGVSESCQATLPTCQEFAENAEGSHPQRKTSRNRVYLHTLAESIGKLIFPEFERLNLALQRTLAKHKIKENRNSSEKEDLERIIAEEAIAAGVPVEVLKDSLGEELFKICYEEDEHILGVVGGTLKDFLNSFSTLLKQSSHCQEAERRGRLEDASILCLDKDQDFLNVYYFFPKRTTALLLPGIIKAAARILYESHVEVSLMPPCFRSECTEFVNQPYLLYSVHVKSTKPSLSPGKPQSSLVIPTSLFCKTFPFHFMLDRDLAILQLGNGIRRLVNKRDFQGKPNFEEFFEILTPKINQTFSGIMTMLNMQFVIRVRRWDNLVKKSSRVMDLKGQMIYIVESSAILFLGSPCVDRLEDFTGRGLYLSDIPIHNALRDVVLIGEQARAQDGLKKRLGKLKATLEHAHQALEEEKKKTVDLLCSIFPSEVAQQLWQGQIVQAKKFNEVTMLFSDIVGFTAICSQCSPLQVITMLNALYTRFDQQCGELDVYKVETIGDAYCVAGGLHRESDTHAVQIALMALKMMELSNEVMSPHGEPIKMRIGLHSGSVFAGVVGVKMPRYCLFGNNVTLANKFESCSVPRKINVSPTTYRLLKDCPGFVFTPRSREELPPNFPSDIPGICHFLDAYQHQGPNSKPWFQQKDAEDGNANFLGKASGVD
Nature of the test: Action on recombinant guanylate cyclase reporter cell line. The settings on record: representative MEC values. It is filed as cell-based. How it is done:
B-2. Action on Recombinant Guanylate Cyclase Reporter Cell Line
The cellular action of the compounds according to the invention is determined on a recombinant guanylate cyclase reporter cell line, as described in F. Wunder et al., Anal. Biochem. 339, 104-112 (2005).
Representative MEC values (MEC=minimal effective concentration) for the compounds according to the invention are shown in the following table: […]

As for `Cc1cc(OCc2c(F)cccc2F)c2nc(C)c(C(=O)NC[C@H]3CC[C@H](C(=O)O)CC3)n2c1` [Example 25, trans-4-{[({8-[(2,6-Difluorobenzyl)oxy]-2,6-dimethylimidazo[1,2-a]pyridin-3-yl}carbonyl)amino]methyl}cyclohexanecarboxylic acid], the “MEC (minimal effective concentration)” value was found to be 1.0 µM.
